The results in this text go back to patent US5278186A, “Chromene derivatives, their production and use” (Takeda Chemical Industries, Ltd., priority 1990, dated 1994).

SMILES strings stand for the structures.

The first assay has as its target T1, Acyl-CoA : cholesterol acyltransferase (ACAT) (Rattus norvegicus, UniProt Q7TQM4).
T1 construct: from the mucosal microsome fraction of the small intestine; from tissue; host or cells: small intestine mucosa (microsome fraction), Sprague-Dawley rat
T1 sequence (Q7TQM4 1-524): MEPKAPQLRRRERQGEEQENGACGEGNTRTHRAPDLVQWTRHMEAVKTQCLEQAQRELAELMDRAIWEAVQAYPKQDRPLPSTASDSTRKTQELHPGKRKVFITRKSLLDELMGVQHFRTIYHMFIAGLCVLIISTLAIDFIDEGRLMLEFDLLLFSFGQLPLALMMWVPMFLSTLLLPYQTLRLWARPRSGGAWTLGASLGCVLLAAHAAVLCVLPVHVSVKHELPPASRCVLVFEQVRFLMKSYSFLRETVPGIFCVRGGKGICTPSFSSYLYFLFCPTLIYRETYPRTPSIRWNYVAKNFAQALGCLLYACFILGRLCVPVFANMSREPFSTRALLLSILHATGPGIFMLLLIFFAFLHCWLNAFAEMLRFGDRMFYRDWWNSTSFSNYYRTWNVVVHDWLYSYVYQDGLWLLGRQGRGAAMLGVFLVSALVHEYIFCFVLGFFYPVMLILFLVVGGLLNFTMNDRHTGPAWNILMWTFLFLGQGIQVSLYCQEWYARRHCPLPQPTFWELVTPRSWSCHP
Briefly: Acyl-CoA : cholesterol acyltransferase (ACAT) inhibitory activity. It is filed as biochemical. Conditions: 10^-6 M; mucosal microsome fraction of small intestine of male 6-week old fasted Sprague-Dawley rats; labeled cholesterol ester from [1^14 C] oleoyl-CoA; read-out: ACAT Inhibition Rate (%) 10^-6 M. The protocol: The enzyme ACAT was prepared by the method of Heider et al. described in Journal of Lipid Research, Vol. 24, page 1127 (1982), from the mucosal microsome fraction of the small intestine of male, 6-week old Sprague-Dawley rats which had been fasted for 20 hours.
ACAT activity was calculated by the method of Helgerud et al. described in Journal of Lipid Research, Vol. 22, page 271 (1981), namely, by measuring the amount of the labeled cholesterol ester produced from [1^14 C] oleoyl-CoA and endogenous cholesterol.
Inhibition rates (%) of the production of the labeled cholesterol ester wherein 10^-6 M or 10^-8 M of test compounds were added are shown as an index of ACAT inhibitory activity in Table 1.
One may read the inhibition as the change of the read-out against control, counted positive when it falls. As for `COc1cc(NC(=O)Nc2c(-c3ccccc3C)c3cc(Cl)c(C)cc3oc2=O)cc(OC)c1OC(C)=O` [Example 26, N-(4-acetoxy-3,5-dimethoxyphenyl)-N,-[6-chloro-7-methyl-4-(2-methylphenyl)-2-oxo-2H-1-benzopyran-3-yl]urea], the inhibition at 1 µM turned out to be 98.5%.

Regarding `Cc1cc2sc(=O)c(NC(=O)Nc3ccc(F)cc3F)c(-c3ccccc3C)c2cc1Cl` [Example 22, N-[6-chloro-7-methyl-4-(2-methylphenyl)-2-oxo-2H-1-thiobenzopyran-3-y-1)-N'-(2,4-difluorophenyl) urea], the inhibition at 1 µM was found to be 97%.

With `Cc1cc2oc(=O)c(NC(=O)Nc3cccc(C(F)(F)F)c3)c(-c3ccccc3C)c2cc1Cl` [Example 20, N-[6-chloro-7-methyl-4-(2-methylphenyl)-2-oxo-2H-1-benzopyran-3-yl]-N'-(3-trifluoromethylphenyl) urea], the inhibition at 1 µM came to 84.8%.

Regarding `Cc1ccccc1-c1c(NC(=O)Nc2ccc(F)cc2F)c(=O)oc2ccc(C(C)C)cc12` [Example 2, N-(2,4-difluorophenyl)-N'-[6-isopropyl-4-(2-methylphenyl)-2-oxo-2H-1-benzopyran-3-yl] urea], the inhibition at 1 µM was 99%.

`COc1cc(NC(=O)Nc2c(-c3ccccc3Cl)c3cc(C)ccc3oc2=O)cc(OC)c1OC(C)=O` [Example 24, N-(4-acetoxy-3,5-dimethoxyphenyl)-N'-[4-(2-chlorophenyl)-6-methyl-2-oxo-2H-1-benzopyran-3-yl] urea]: the inhibition at 1 µM came out at 98.6%.

With `CC(=O)Oc1c(C)cc(NC(=O)Nc2c(-c3ccccc3C)c3cc(Cl)c(C)cc3oc2=O)cc1C` [Example 27, N-(4-acetoxy-3,5-dimethylphenyl)-N'-[6-chloro-7-methyl-4-(2-methylphenyl)-2-oxo-2H-1-benzopyran-3-yl]urea], the inhibition at 1 µM was determined as 99.1%.

For `Cc1cc2oc(=O)c(NC(=O)Nc3ccc(F)cc3F)c(-c3ccccc3C)c2cc1C` [Example 3, N-(2,4-difluorophenyl)-N'-[4-(2-methylphenyl)-6,7-dimethyl-2-oxo-2H-1-benzopyran-3-yl] urea], the inhibition at 1 µM was found to be 99.2%.

With `CC(C)c1ccc2oc(=O)c(NC(=O)Nc3ccc(F)cc3F)c(-c3ccc(F)cc3)c2c1` [Example 30, N-(2,4-difluorophenyl)-N'-[4-(4-fluorophenyl)-6-isopropyl-2-oxo-2H-1-benzopyran-3-yl] urea], the inhibition at 1 µM came to 90.2%.

For `Cc1ccccc1-c1c(NC(=O)Nc2ccc(F)cc2F)c(=O)oc2ccc(Cl)cc12` [Example 1, N-[6-chloro-4-(2-methylphenyl)-2-oxo-2H-1-benzopyran-3-yl]-N'-(2,4-difluorophenyl) urea], the inhibition at 1 µM was 99%.

Turning to `COc1cc(C=CC(=O)Nc2c(-c3ccccc3C)c3cc(Cl)c(C)cc3oc2=O)cc(OC)c1OC(C)=O` [Example 19, 3-(4-acetoxy-3,5-dimethoxycinnamoylamino)-6-chloro-7-methyl-4-(2-methylphenyl)-2H-1-benzopyran-2-one], the inhibition at 1 µM came out at 92.3%.

Regarding `COc1cc(NC(=O)Nc2c(-c3ccccc3C)c3cc(C)c(C)cc3oc2=O)cc(OC)c1OC(C)=O` [Example 25, N-(4-acetoxy-3,5-dimethoxyphenyl)-N'-[6,7-dimethyl-4-(2-methylphenyl)-2-oxo-2H-1-benzopyran-3-yl]urea], the inhibition at 1 µM came out at 98.8%.

As to `Cc1cc2oc(=O)c(NC(=O)c3ccc(F)cc3F)c(-c3ccccc3C)c2cc1Cl` [Example 29, 6-chloro-3-(2,4-difluorobenzoylamino)-7-methyl-4-(2-methylphenyl)-2H-1-benzopyran-2-one], the inhibition at 1 µM worked out at 95.4%.

The same assay, now with this note: 10^-8 M; mucosal microsome fraction of small intestine of male 6-week old fasted Sprague-Dawley rats; labeled cholesterol ester from [1^14 C] oleoyl-CoA; read-out: ACAT Inhibition Rate (%) 10^-8 M.
With `Cc1ccc2oc(=O)c(NC(=O)Nc3ccc(F)cc3F)c(-c3ccccc3C)c2c1` [Example 16, N-[2,4-difluorophenyl)-N'-[6-methyl-4-(2-methylphenyl)-2-oxo-2H-1-benzopyran-3-yl) urea], the inhibition at 0.01 µM stood at 42.7%.

As to `Cc1ccc2oc(=O)c(NC(=O)Nc3ccc(F)cc3F)c(-c3ccccc3Cl)c2c1` [Example 18, N-[4-(2-chlorophenyl)-6-methyl-2-oxo-2H-1-benzopyran-3-yl)-N'-(2,4-difluorophenyl) urea], the inhibition at 0.01 µM stood at 56.1%.

`Cc1cc2oc(=O)c(NC(=O)Nc3ccc(Cl)cc3)c(-c3ccccc3C)c2cc1C` [Example 4, N-(4-chlorophenyl)-N'-[6,7-dimethyl-4-(2-methylphenyl)-2-oxo-2-H-1-benzopyran-3-yl] urea]: the inhibition at 0.01 µM stood at 69.7%.

As to `Cc1cc2oc(=O)c(NC(=O)Nc3ccc(F)cc3F)c(-c3ccccc3C)c2cc1Cl` [Example 7, N-[6-chloro-7-methyl-4-(2-methylphenyl)-2-oxo-2H-1-benzopyran-3-yl)-N'-(2,4-difuorophenyl) urea], the inhibition at 0.01 µM was 81.7%.

Regarding `CCc1ccc2oc(=O)c(NC(=O)Nc3ccc(F)cc3F)c(-c3ccccc3C)c2c1` [Example 6, N-[6-ethyl-4-(2-methylphenyl)-2-oxo-2H-1-benzopyran-3-yl]-N'-(2,4-difluorophenyl) urea], the inhibition at 0.01 µM came to 45.9%.

On to `Cc1cc2oc(=O)c(NC(=O)Cc3ccc(F)cc3F)c(-c3ccccc3C)c2cc1Cl` [Example 28, 6-chloro-3-(2,4-difluorophenylacetylamino)-7-methyl-4-(2-methylphenyl)-2H-1-benzopyran-2-one], for which the inhibition at 0.01 µM was determined as 34.3%.

For `Cc1cc2c(-c3ccccc3C)c(NC(=O)Nc3ccc(F)cc3F)c(=O)oc2cc1Cl` [Example 17, N-[7-chloro-6-methyl-4-(2-methylphenyl)-3-oxo-2H-1-benzopyran-3-yl)-N'-(2,4-difluorophenyl) urea], the inhibition at 0.01 µM turned out to be 84.2%.

Consider `Cc1cc2oc(=O)c(NC(=O)Nc3ccc(F)cc3F)c(-c3ccccc3Cl)c2cc1C` [Example 11], for which the inhibition at 0.01 µM was determined as 86.7%.
